Like-named read-outs stand apart in the source and are kept apart here.

Common to all, as to assay: TGFα-shedding assay-based GPCR screening with chimeric Gα subunit proteins
Type in all cases: cell-based

For test [1], the target named is T1, 348 GPCRs (Homo sapiens, UniProt P24530).
T1 construct: expressed in transfected cells; host or cells: HEK293A
T1 sequence (P24530 27-442): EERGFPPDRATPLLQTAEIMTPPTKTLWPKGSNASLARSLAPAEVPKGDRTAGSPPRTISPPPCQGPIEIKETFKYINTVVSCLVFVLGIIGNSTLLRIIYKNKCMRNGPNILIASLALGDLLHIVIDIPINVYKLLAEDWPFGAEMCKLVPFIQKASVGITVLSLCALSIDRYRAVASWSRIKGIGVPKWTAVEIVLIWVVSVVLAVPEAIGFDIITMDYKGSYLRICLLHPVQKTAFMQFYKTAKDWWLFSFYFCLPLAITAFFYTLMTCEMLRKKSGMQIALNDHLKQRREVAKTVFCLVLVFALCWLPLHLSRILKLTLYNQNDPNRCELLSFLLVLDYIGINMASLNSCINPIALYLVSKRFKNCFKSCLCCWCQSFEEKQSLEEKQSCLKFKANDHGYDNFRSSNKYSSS
The following applies: 10µM, Favipiravir 100μM.

For test [2], the target named is 348 GPCRs (Homo sapiens, UniProt P31391). The following applies: 10µM, Favipiravir 100μM.
For test [3], the target named is T2, 348 GPCRs (Homo sapiens, UniProt Q6QNK2).
T2 construct: expressed in transfected cells; host or cells: HEK293A
T2 sequence (Q6QNK2 26-874): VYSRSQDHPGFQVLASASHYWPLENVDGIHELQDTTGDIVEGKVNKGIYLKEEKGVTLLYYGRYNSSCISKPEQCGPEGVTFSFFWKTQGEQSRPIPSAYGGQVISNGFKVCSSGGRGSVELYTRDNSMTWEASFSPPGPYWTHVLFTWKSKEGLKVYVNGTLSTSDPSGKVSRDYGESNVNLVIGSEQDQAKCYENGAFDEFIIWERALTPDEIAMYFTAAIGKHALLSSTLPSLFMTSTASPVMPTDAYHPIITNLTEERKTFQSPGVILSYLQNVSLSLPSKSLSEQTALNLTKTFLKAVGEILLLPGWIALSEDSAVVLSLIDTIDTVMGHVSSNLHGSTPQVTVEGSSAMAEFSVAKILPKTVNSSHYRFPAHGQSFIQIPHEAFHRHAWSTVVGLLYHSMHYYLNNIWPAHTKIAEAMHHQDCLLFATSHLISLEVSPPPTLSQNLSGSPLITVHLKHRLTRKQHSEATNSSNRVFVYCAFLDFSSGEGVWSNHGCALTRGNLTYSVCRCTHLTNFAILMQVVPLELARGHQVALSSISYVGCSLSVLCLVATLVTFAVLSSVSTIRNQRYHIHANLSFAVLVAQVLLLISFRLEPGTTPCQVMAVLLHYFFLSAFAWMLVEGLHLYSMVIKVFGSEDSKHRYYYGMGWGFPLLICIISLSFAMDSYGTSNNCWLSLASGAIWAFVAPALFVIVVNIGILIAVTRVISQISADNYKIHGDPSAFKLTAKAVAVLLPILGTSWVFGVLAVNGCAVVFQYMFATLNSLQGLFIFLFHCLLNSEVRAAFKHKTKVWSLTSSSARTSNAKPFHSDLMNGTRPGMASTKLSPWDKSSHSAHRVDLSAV
The following applies: 10µM, Favipiravir 100μM.

Test [4] has as its target T3, 348 GPCRs (Homo sapiens, UniProt Q9H244).
T3 construct: expressed in transfected cells; host or cells: HEK293A

In test [5] the target is T4, 348 GPCRs (Homo sapiens, UniProt P32245).
T4 construct: expressed in transfected cells; host or cells: HEK293A

In test [6] the target is T5, 348 GPCRs (Homo sapiens, UniProt Q99678).
T5 construct: expressed in transfected cells; host or cells: HEK293A
The following applies: 10µM, Favipiravir 100μM.

Test [7] deals with T6, 348 GPCRs (Homo sapiens, UniProt Q9NQ84).
T6 construct: expressed in transfected cells; host or cells: HEK293A
The following applies: 10µM, Favipiravir 100μM.

For test [8], the target named is T7, 348 GPCRs (Homo sapiens, UniProt O60755).
T7 construct: expressed in transfected cells; host or cells: HEK293A
T7 sequence (O60755 1-368): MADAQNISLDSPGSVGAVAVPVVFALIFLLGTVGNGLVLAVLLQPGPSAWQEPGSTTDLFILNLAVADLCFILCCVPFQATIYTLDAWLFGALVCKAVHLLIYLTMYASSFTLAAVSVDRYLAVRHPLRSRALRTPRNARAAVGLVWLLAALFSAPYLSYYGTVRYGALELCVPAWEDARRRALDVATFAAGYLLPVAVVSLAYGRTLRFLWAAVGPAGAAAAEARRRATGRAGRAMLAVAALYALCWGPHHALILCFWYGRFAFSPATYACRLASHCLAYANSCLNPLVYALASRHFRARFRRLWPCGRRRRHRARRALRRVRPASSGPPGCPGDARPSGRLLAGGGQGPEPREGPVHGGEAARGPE
The following applies: 10µM, Favipiravir 100μM.

Test [9] deals with T8, 348 GPCRs (Homo sapiens, UniProt Q99527).
T8 construct: expressed in transfected cells; host or cells: HEK293A
The following applies: 10µM, Favipiravir 100μM.

Setting [10] is: EDNRB (endothelin receptor type B), read-out: % GPCR activation compared to TPA.
Setting [11] is: SSTR4 (somatostatin receptor 4), read-out: % GPCR activation compared to TPA.
Setting [12] is: GPR133 (G protein-coupled receptor 133), read-out: % GPCR activation compared to TPA.
Where [13] appears, read: GPCR P2Y12 (purinergic receptor P2Y, G-protein coupled, 12), read-out: % GPCR activation compared to TPA.
[14] abbreviates: GPCR MC4R (melanocortin 4 receptor), read-out: % GPCR activation compared to TPA.
[15] abbreviates: GPR20 (G protein-coupled receptor 20), read-out: % GPCR activation compared to TPA.
Where [16] appears, read: GPRC5C (G protein-coupled receptor, family C, group 5, member C), read-out: % GPCR activation compared to TPA.
[17] abbreviates: GALR3 (galanin receptor 3), read-out: % GPCR activation compared to TPA.
[18] abbreviates: GPER (G protein-coupled estrogen receptor 1), read-out: % GPCR activation compared to TPA.
[19] abbreviates: read-out: % GPCR activation compared to TPA, EDNRB (endothelin receptor type B).
[20] abbreviates: read-out: % GPCR activation compared to TPA, SSTR4 (somatostatin receptor 4).
[21] abbreviates: read-out: % GPCR activation compared to TPA, GPR133 (G protein-coupled receptor 133).
[22] abbreviates: read-out: % GPCR activation compared to TPA, GPCR P2Y12 (purinergic receptor P2Y, G-protein coupled, 12).
Setting [23] is: read-out: % GPCR activation compared to TPA, GPCR MC4R (melanocortin 4 receptor).
Where [24] appears, read: read-out: % GPCR activation compared to TPA, GPR20 (G protein-coupled receptor 20).
The mark [25] stands for this setting: read-out: % GPCR activation compared to TPA, GPRC5C (G protein-coupled receptor, family C, group 5, member C).
Where [26] appears, read: read-out: % GPCR activation compared to TPA, GALR3 (galanin receptor 3).
The mark [27] stands for this setting: read-out: % GPCR activation compared to TPA, GPER (G protein-coupled estrogen receptor 1).

T8 sequence (Q99527 whole entry): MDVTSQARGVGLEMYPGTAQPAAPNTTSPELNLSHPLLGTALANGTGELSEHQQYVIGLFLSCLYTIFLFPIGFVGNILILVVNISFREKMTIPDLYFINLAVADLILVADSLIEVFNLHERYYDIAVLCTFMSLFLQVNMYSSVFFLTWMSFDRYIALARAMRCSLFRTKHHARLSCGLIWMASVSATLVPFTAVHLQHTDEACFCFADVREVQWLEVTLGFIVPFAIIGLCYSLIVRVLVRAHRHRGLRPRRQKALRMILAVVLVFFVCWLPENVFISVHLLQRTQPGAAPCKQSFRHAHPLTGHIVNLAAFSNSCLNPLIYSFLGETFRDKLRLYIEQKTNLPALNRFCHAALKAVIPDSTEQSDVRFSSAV
T3 sequence (Q9H244 whole entry): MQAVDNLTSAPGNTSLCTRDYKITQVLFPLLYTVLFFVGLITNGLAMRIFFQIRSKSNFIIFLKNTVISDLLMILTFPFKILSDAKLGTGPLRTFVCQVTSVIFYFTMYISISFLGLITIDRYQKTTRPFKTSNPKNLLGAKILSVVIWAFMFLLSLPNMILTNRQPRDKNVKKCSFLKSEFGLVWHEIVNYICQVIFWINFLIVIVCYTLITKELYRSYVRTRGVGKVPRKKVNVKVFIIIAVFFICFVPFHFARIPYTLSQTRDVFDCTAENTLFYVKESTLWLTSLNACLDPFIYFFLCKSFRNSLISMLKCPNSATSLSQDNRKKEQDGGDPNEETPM
T4 sequence (P32245 whole entry): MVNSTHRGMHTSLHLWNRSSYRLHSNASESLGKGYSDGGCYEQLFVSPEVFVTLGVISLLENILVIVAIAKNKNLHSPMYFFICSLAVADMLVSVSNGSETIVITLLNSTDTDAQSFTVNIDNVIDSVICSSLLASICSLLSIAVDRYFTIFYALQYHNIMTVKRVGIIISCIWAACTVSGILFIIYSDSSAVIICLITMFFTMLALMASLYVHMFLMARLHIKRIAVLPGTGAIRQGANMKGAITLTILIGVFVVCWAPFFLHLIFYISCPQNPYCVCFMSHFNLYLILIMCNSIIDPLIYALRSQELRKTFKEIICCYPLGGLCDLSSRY
T5 sequence (Q99678 whole entry): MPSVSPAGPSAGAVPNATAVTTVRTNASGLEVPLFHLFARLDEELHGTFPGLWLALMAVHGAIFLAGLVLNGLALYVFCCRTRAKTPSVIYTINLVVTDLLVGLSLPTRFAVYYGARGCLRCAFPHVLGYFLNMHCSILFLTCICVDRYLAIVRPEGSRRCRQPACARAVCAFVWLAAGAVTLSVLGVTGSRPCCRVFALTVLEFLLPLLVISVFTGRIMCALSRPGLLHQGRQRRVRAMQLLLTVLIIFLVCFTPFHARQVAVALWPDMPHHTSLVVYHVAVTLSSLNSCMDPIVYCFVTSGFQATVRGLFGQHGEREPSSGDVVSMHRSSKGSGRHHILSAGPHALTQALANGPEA
T6 sequence (Q9NQ84 24-441): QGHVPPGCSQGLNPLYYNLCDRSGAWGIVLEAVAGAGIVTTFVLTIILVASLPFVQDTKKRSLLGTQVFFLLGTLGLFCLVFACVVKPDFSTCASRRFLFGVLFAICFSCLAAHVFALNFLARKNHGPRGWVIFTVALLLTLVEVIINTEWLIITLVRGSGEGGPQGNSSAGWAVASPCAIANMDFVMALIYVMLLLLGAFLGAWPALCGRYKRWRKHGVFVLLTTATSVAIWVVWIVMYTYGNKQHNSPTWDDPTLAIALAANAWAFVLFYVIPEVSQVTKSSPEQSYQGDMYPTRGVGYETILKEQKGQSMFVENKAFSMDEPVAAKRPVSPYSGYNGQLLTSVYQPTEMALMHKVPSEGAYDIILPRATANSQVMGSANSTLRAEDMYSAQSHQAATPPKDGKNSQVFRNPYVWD
Sequence of 348 GPCRs (Homo sapiens, UniProt P31391) (P31391 whole entry): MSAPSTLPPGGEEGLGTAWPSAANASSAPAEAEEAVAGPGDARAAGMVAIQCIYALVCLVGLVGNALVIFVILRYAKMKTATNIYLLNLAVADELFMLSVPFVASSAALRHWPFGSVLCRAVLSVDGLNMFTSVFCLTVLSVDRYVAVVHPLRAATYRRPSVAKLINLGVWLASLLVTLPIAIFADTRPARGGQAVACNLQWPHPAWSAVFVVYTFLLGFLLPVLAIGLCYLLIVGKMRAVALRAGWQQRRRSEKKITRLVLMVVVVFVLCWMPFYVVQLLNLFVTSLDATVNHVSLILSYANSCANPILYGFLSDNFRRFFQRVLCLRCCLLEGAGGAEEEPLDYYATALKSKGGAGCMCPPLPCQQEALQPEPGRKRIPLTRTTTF

`CC(C)C(=O)OC[C@H]1O[C@@H](n2ccc(NO)nc2=O)[C@H](O)[C@@H]1O` [molnupiravir]: the activation at 100 µM in test [1] (setting [10]) is -3.6%; in test [3] (setting [12]), -83.1%; in test [6] (setting [15]), -0.078%; in [7] (setting [16]), -0.707%; in test [8] (setting [17]), 0.404%. Besides, the activation at 10 µM in test [2] (setting [11]) was -1.09%; in test [4] (setting [13]) it was -6.75%; in [5] (setting [14]) it was -1.93%; in [9] (setting [18]), -1.26%.

Turning to `CC(C)OC(=O)[C@H](C)N[P@](=O)(OC[C@H]1O[C@@H](n2ccc(=O)[nH]c2=O)[C@](C)(F)[C@@H]1O)Oc1ccccc1` [sofosbuvir], the activation at 100 µM in test [1] (setting [19]) was -2.57%; in [3] (setting [21]), -82.3%; in test [6] (setting [24]), -2.45%; in [7] (setting [25]) it was -0.501%; in test [8] (setting [26]) it was -0.187%. Moreover, the activation at 10 µM in test [2] (setting [20]) was 0.279%; in test [4] (setting [22]) it was -2.59%; in [5] (setting [23]), -2.6%; in test [9] (setting [27]) it was -0.815%.

On to `N#C[C@@]1(c2ccc3c(N)ncnn23)O[C@H](CO)[C@@H](O)[C@H]1O` [GS441524], for which the activation at 100 µM in [1] (setting [10]) was -4.24%; in [3] (setting [12]) it was 3.32%; in test [6] (setting [15]), 7.2%; in test [7] (setting [16]), -1%; in [8] (setting [17]), 2.25%. For the same compound, the activation at 10 µM in [2] (setting [11]) was -0.36%; in test [4] (setting [13]) it was -4.31%; in test [5] (setting [14]), 2.19%; in test [9] (setting [18]), -3.06%.

As to `NC(=O)c1nc(F)cnc1O` [favipiravir, 6-fluoro-3-hydroxy-2-pyrazinecarboxamide], the activation at 100 µM in test [1] (setting [10]) was -3.11%; in [3] (setting [12]) it was 2.84%; in test [4] (GPCR P2Y12 (purinergic receptor P2Y, G-protein coupled, 12), 100μM, read-out: % GPCR activation compared to TPA), -4.09%; in test [5] (GPCR MC4R (melanocortin 4 receptor), 100μM, read-out: % GPCR activation compared to TPA), 2.24%; in [6] (setting [15]) it was 3.63%; in [7] (setting [16]), -1.31%. The activation at 100 µM in test [8] (setting [17]) worked out at 3.96%. Also, the activation at 10 µM is -0.164% in test [2] (setting [11]) and -2.76% in test [9] (setting [18]).

With `CCC(CC)COC(=O)[C@H](C)N[P@](=O)(OC[C@H]1O[C@@](C#N)(c2ccc3c(N)ncnn23)[C@H](O)[C@@H]1O)Oc1ccccc1` [remdesivir], the activation at 100 µM is -2.2% in [1] (setting [19]); 3.45% in test [3] (setting [21]); 8.9% in test [6] (setting [24]); -1.81% in test [7] (setting [25]); 3.03% in test [8] (setting [26]). For the same compound, the activation at 10 µM in [2] (setting [20]) was determined as 0.732%; in [4] (setting [22]) it was 0.718%; in [5] (setting [23]) it was 3.44%; in test [9] (setting [27]), 1.6%.
